System: MPT21 (SEQ ID NO: 22; chimera of MPT1 and MPT4) as fusion GPS1.1-F11-MPT21 (SEQ ID NO: 25), expressed in Yarrowia
Test: In vitro activity assay with microsomes of GPS1.1-F11-MPT21
Format: biochemical
Conditions: microsomes from Yarrowia sCL-SE-0128 + pCL-SE-0664; varying concentrations of OA and DVA; enzyme not purified to homogeneity
Experimental: Yarrowia cells sCL-SE-0128 expressing the fusion of GPS1.1 with MPT4 (pCL-SE-0406) and MPT21 (pCL-SE-0664) were grown at 30 mL culture at 30 C for 2 days in YNB with 20% glucose. The cells were collected by centrifugation, washed with homogenization buffer (MAK340-1KT Sigma Aldrich) and were resuspended in 2 mL of homogenization buffer. The suspended cells were transferred to 5 mL tubes containing 1 mL of glass beads and were homogenized by shaking for 5 min at max speed in a shaker (Retsch MM400). The lysed cells were transferred to new tubes and microsomes were prepared as described in the kit (MAK340-1KT). Activity assays were performed using microsomes from both enzymes and varying concentrations of OA and DVA.

## CCCCCc1cc(O)cc(O)c1C(=O)O [OA, olivetolic acid]
  Km: 20.9 µM

## CCCc1cc(O)cc(O)c1C(=O)O [DVA, divarinic acid]
  Km: 62.2 µM

From patent US20240228986A1, “ENGINEERED CELLS, ENZYMES, AND METHODS FOR PRODUCING CANNABINOIDS” (priority 2021, published 2024)
